What all share (format): cell-based
Series [1] is described as follows: in vitro. The note with it: African green monkey, CC50. On the procedure:
(§1) Potential cytotoxic effects of the compounds were evaluated in uninfected quiescent Vero-B or Vero-M cells. Cells were seeded at 5×10^4 cells/well in a 96-well plate in the presence of two-, three- or five-fold serial dilutions (ranging from 50 μg/mL-0.0038 μg/mL, 50 μg/mL-0.0076 μg/mL, and 50 μg/mL-0.00013 μg/mL, respectively) of compound and incubated for 4 to 7 days. Culture medium was discarded and 100 μL 3-(4,5-dimethylthiazol-2-yl)-5-(3-carboxy-methoxyphenyl)-2-(4-sulfophenyl)-2H-tetrazolium/phenazinemethosulfate (MTS/PMS; Promega, Leiden, The Netherlands) in PBS was added to each well. Following a 2-hour incubation period at 37° C., the optical density was determined at 498 nm. Cytotoxic activity was calculated using the following formula: % cell viability=100×(ODCompound/ODCC), where ODCompound and ODCC correspond to the optical density at 498 nm of the uninfected cell cultures treated with compound and that of uninfected, untreated cell cultures, respectively. The 50% cytotoxic concentration (i.e., the concentration that reduces the total cell number with 50%; CC50) was calculated using linear interpolation.

For series [2], the system named is uninfected quiescent Vero-B or Vero-M cells. Put plainly: in vitro. The note with it: African green monkey. On the procedure:
as §1

The next series has as its system DENV-1 strain TC974#666. The series is described as follows: Tetravalent RT-qPCR assay Protocol A, serotype 1. The note with it: Dengue virus, DENV1, 72 h, RT-qPCR serotype 1 TC974#666, Vero cells, day 3. On the procedure: (§2) The antiviral activity of the compounds of the invention was tested against DENV-1 strain TC974#666 (NCPV; Table 6), DENV-2 strain 16681 (Table 7), DENV-3 strain H87 (NCPV; Table 8) and DENV-4 strains H241 (NCPV; Table 9A) and SG/06K2270DK1/2005 (Eden; Table 9B) in a RT-qPCR assay. Therefore, Vero cells were infected with either DENV-1, or -2, or -3, or -4 in the presence or absence of test compounds. At day 3 post-infection, the cells were lysed and cell lysates were used to prepare cDNA of both a viral target (the 3′UTR of DENV; Table 2) and a cellular reference gene (β-actin, Table 2). Subsequently, a duplex real time PCR was performed on a Lightcycler480 instrument. The generated Cp value is inversely proportional to the amount of RNA expression of these targets. Inhibition of DENV replication by test compound results in a shift of Cp's for the 3′UTR gene. On the other hand, if a test compound is toxic to the cells, a similar effect on β-actin expression will be observed. The comparative ΔΔCp method is used to calculate EC50, which is based on the relative gene expression of the target gene (3′UTR) normalized with the cellular housekeeping gene (β-actin).
(§3) The culture medium consisted of minimal essential medium supplemented with 2% of heat-inactivated fetal calf serum, 0.04% gentamycin (50 mg/mL) and 2 mM of L-glutamine. Vero cells, obtained from ECACC, were suspended in culture medium and 75 μL/well was added in 96-well plates (10000 cells/well), which already contain the antiviral compounds. […] In addition, each plate contains wells which are assigned as virus controls (containing cells and virus in the absence of compound) and cell controls (containing cells in the absence of virus and compound). Once the cells were added in the plates, the plates were incubated in a fully humidified incubator (37° C., 5% CO2) until the next day. Dengue viruses serotype-1, 2, 3 and 4 were diluted in order to obtain a Cp of ˜22-24 in the assay. Therefore, 25 μL of virus suspension was added to all the wells containing test compound and to the wells assigned as virus control. In parallel, 25 μL of culture medium was added to the cell controls. Next, the plates were incubated for 3 days in a fully humidified incubator (37° C., 5% CO2). After 3 days, the supernatant was removed from the wells and the cells were washed twice with ice-cold PBS (˜100 μL). The cell pellets within the 96-well plates were stored at −80° C. for at least 1 day. Next, RNA was extracted using the Cells-to-CT™ lysis kit, according to the manufacturer's guideline (Life Technologies). The cell lysates can be stored at −80° C. or immediately used in the reverse transcription step.
(§4) In preparation of the reverse transcription step, mix A (table 3A) was prepared and 7.57 μL/well was dispensed in a 96-well plate. After addition of 5 μL of the cell lysates, a five minute denaturation step at 75° C. was performed (table 3B). Afterwards, 7.43 μL of mix B was added (table 3C) and the reverse transcription step was initiated (table 3D) to generate cDNA.
(§5) Finally, a RT-qPCR mix was prepared, mix C (table 4A), and 22.02 μL/well was dispensed in 96-well LightCycler qPCR plates to which 3 μL of cDNA was added and the qPCR was performed according to the conditions in table 4B on a LightCycler 480.
(§6) Using the LightCycler software and an in-house LIMS system, dose response curves for each compound were calculated and the half maximal effective concentration (EC50) and the half maximal cytotoxic concentration (CC50) were determined.
(In general: Real-time PCR tracks product formation cycle by cycle.)

The next series has as its system DENV-4 strain H241. Put plainly: Tetravalent RT-qPCR assay Protocol A, serotype 4 H241. The note with it: Dengue virus, DENV4, 72 h; Protocol A, RT-qPCR serotype 4 H241, Vero cells, day 3; read-out: EC50. On the procedure: as §2, §3, §4, §5, §6
Series [3] can be described thus: in vitro. The note with it: African green monkey, CC50. On the procedure:
as §2, §3, §6
The source holds these as a separate data set.

The CC50 is the concentration giving 50% cytotoxicity. The EC50 is the concentration at which the effect is half-maximal. For the compound `COc1cc(NC(C(=O)c2c[nH]c3c(C)c(OC)ccc23)c2ccc(Cl)cc2OC)cc(S(C)(=O)=O)c1` (single isomer, unassigned) [Compound 6A, 2-(4-chloro-2-methoxyphenyl)-2-((3-methoxy-5-(methyl-sulfonyl)phenyl)amino)-1-(6-methoxy-7-methyl-1H-indol-3-yl)ethanone], the cytotoxic concentration (CC50) (in the series “in vitro [1]”; in series [2]) was over 92 µM in each case. Further, the EC50 with DENV-1 strain TC974#666 was determined as 0.0016 µM; in the series on DENV-4 strain H241, 0.095 µM. Besides, the CC50 at 3 days in the series “in vitro [3]” is over 10 µM.
As to `COc1cc(NC(C(=O)c2c[nH]c3cc(F)ccc23)c2ccc(Cl)cc2OC)cc(S(C)(=O)=O)c1` (single isomer, unassigned) [Compound 1A, 2-(4-chloro-2-methoxyphenyl)-1-(6-fluoro-1H-indol-3-yl)-2-((3-methoxy-5-(methylsulfonyl)phenyl)amino)ethanone], the results for the CC50 (in the series “in vitro [1]”; in series [2]) were 8 µM and 11 µM, respectively. Besides, the half-maximal effective concentration (EC50) in the series with DENV-1 strain TC974#666 worked out at 0.0025 µM; in the series on DENV-4 strain H241, 0.093 µM. The CC50 at 3 days in the series “in vitro [3]” was 5 µM.
In the case of `COc1cc(NC(C(=O)c2c[nH]c3cc(OC)c(C)cc23)c2ccc(Cl)cc2OC)cc(S(C)(=O)=O)c1` (single isomer, unassigned) [Compound 4A, 2-(4-chloro-2-methoxyphenyl)-2-((3-methoxy-5-(methyl-sulfonyl)phenyl)amino)-1-(6-methoxy-5-methyl-1H-indol-3-yl)ethanone], the results for the half-maximal cytotoxic concentration (CC50) (in “in vitro [1]”; in series [2]) were 4.3 µM and 6.6 µM, respectively. In addition, the EC50 in the series on DENV-1 strain TC974#666 stood at 0.00097 µM; in the series with DENV-4 strain H241, 0.053 µM.
`COc1cc(NC(C(=O)c2c[nH]c3cc(OC)c(F)cc23)c2ccc(Cl)cc2OC)cc(S(C)(=O)=O)c1` (single isomer, unassigned) [Compound 5A, 2-(4-chloro-2-methoxyphenyl)-1-(5-fluoro-6-methoxy-1H-indol-3-yl)-2-((3-methoxy-5-(methylsulfonyl)phenyl)amino)ethanone] gave a half-maximal cytotoxic concentration (CC50) in the series “in vitro [1]” of 9.2 µM. Also, the EC50 was 0.0036 µM with DENV-1 strain TC974#666 and 0.1 µM with DENV-4 strain H241. In “in vitro [3]”, this compound registered a cytotoxic concentration (CC50) at 3 days of 5.2 µM.
For the compound `COc1cc(NC(C(=O)c2c[nH]c3c(C)c(F)ccc23)c2ccc(Cl)cc2OC)cc(S(C)(=O)=O)c1` (single isomer, unassigned) [Compound 2A, 2-(4-chloro-2-methoxyphenyl)-1-(6-fluoro-7-methyl-1H-indol-3-yl)-2-((3-methoxy-5-(methylsulfonyl)phenyl)amino)ethanone], the half-maximal cytotoxic concentration (CC50) in the series “in vitro [1]” came to 7.3 µM; in series [2] it was 11 µM. For the same compound, the results for the concentration for a half-maximal effect (EC50) in the series with DENV-1 strain TC974#666 and in the series on DENV-4 strain H241 were 0.0024 µM and 0.083 µM, respectively. Moreover, it took 5.3 µM to reach half-maximal cytotoxicity in the series “in vitro [3]” (CC50 at 3 days).

Values taken from US12172959B2, “Mono- or di-substituted indole derivatives as dengue viral replication inhibitors” (priority 2015, dated 2024).
